Source: ChEMBL document CHEMBL3414522, “Design, synthesis, and biological evaluation of novel matrix metalloproteinase inhibitors as potent antihemorrhagic agents: from hit identification to an optimized lead” (J Med Chem, 2015)

What was measured:
in vitro [1] = conditions: mouse, liver microsomes
in vitro [2] = conditions: rat, liver microsomes
in vitro [3] = conditions: human, liver microsomes
[4] = Apparent permeability from apical to basolateral side in human Caco2 cells at 2 uM after 120 mins by LC-MS/MS analysis; assay type: ADME, cell-based; conditions: caco-2, 2 h

Structure (SMILES) | remaining at 20 min, 1 µM (in vitro [1]) [%] | remaining at 20 min, 1 µM (in vitro [2]) [%] | remaining at 20 min, 1 µM (in vitro [3]) [%] | Papp [4] [×10⁻⁶ cm/s]
O=C(NO)C1(S(=O)(=O)c2ccc(Oc3ccc(OC(F)(F)F)cc3)cc2)CCC2(CCNCC2)C1 (centres undefined) | 87.2 | 95.6 | 92.1 | –
CNC(=O)c1ccc(Oc2ccc(S(=O)(=O)C3(C(=O)NO)CCC4(CCNCC4)C3)cc2)cc1 (centres undefined) | 97.5 | 99.8 | 91.1 | –
CNC(=O)c1ccc(Oc2ccc(S(=O)(=O)[C@@]3(C(=O)NO)CCC4(CCNCC4)C3)cc2)cc1 | 89.6 | 97.4 | 97 | 0.00059
CNC(=O)c1ccc(Oc2ccc(S(=O)(=O)[C@]3(C(=O)NO)CCC4(CCNCC4)C3)cc2)cc1 | 98 | 98.1 | 93.5 | 0.00016
